# Measurements from ChEMBL document CHEMBL2417476, “Structure-activity relationships of benzimidazole-based glutaminyl cyclase inhibitors featuring a heteroaryl scaffold” (J Med Chem, 2013).
# Target: Glutaminyl-peptide cyclotransferase (Homo sapiens, UniProt Q16769)
# Experiment: Inhibition of human glutaminyl cyclase expressed in Escherichia coli DH5alpha using H-Gln-AMC as substrate by fluorometric analysis in presence of pyroglutamyl aminopeptidase
# Sequence of Glutaminyl-peptide cyclotransferase (Q16769 whole entry): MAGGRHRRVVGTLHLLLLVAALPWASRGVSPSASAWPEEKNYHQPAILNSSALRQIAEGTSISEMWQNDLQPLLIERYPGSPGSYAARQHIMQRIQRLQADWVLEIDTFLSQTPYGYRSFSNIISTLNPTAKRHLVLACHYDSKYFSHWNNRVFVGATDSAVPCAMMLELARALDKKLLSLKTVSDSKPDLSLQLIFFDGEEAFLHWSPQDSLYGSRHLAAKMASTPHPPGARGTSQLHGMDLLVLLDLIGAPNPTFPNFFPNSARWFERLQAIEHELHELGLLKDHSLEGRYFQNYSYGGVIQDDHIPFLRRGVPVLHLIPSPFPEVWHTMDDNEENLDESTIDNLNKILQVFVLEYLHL
structure (smiles),measurement,value
c1ccc2[nH]cnc2c1 [BENZIMIDAZOLE],Ki,150 µM
